Key:
BovGH167 = biological target: T1, BovGH167 (Bacteroides ovatus, UniProt A0ABF7PI57); test: thin layer chromatography of products; assay type: biochemical; details: hydrolysis of β-1,4-linkage to κ-NC2 and likely β-NC2 activity as GH167
T1 construct: gene HMPREF1069_02044; residues 26-775, synthetic codon-optimised gene, pET28a His-tag, E. coli BL21(DE3) Star
T1 sequence (A0ABF7PI57 26-775): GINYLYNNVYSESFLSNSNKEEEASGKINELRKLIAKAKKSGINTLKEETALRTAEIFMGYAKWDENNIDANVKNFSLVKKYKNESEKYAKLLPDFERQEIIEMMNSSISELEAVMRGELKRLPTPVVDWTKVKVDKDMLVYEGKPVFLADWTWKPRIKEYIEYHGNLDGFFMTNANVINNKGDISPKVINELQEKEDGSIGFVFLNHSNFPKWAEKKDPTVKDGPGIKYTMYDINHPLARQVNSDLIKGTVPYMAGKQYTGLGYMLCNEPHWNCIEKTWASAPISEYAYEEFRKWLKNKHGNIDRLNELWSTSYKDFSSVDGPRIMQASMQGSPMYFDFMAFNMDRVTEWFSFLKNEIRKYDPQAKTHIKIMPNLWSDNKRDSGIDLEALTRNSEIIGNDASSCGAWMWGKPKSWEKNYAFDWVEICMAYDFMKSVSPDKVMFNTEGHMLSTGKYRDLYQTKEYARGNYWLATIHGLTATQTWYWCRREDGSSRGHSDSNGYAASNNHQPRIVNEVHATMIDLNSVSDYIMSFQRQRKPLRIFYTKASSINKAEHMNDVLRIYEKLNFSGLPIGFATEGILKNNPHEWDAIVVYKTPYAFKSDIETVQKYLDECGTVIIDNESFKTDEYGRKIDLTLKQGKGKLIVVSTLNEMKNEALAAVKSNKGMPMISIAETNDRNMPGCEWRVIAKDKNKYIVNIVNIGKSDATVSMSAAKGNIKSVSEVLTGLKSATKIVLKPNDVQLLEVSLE

GH167 = biological target: T2, GH167 (Pseudoalteromonas fuliginea, UniProt A0ABQ6RII1); test: thin layer chromatography of products; assay type: biochemical; details: hydrolysis of β-1,4-linkage to κ-NC2 and likely β-NC2
T2 construct: gene EU509_08810; residues 21-808, signal peptide removed, pET28a His-tag, E. coli BL21(DE3) Star

S1_19B = biological target: T3, S1_19B (Pseudoalteromonas fuliginea, UniProt A0ABQ6RIL2, C77S); test: crystal structure of the complex; assay type: binding; details: co-crystallization; inactive (non-productive) complex; C77S inferred from methods (mutants in complex with ligands)
T3 construct: gene EU509_08890; residues 28-473, signal peptide removed, pET28a N-terminal His-tag (cut by thrombin for crystals), E. coli BL21(DE3) Star with formylglycine generating enzyme; dimer

S1_19A = biological target: T4, S1_19A (Pseudoalteromonas fuliginea, UniProt A0ABQ6RIU8); test: product analysis, details in supplement; assay type: biochemical; details: removes 4-sulfate from G4S adjacent to the non-reducing end
T4 construct: gene EU509_08825; pET28a His-tag, E. coli BL21(DE3) Star with formylglycine generating enzyme; cloning described previously

S1_NC = biological target: T5, S1_NC (Pseudoalteromonas fuliginea, UniProt A0ABQ6RIJ3, C84S); test: crystal structure of the complex; assay type: binding; details: crystal soaking; only the non-reducing end disaccharide (ι-NC2) modelled; active site
T5 construct: gene EU509_08820; residues 34-507, signal peptide removed, pET28a N-terminal His-tag cut by thrombin for crystals, E. coli BL21(DE3) Star

[1] = biological target: DauA, 3,6-anhydro-D-galactose dehydrogenase from Pseudoalteromonas fuliginea PS47 (Pseudoalteromonas fuliginea PS47); test: crystal structure; hanging drop vapor-diffusion at 18 °C; N-terminal His-Tag cleaved with thrombin before crystallization
[2] = biological target: S1_19B, exo-G4S κ-carrageenan sulfatase from Pseudoalteromonas fuliginea PS47 (Pseudoalteromonas fuliginea PS47); test: not stated; in solution; method told only in Supplementary Notes (section 3) and Supplementary Fig. 7b-d
[3] = biological target: S1_19B, exo-G4S κ-carrageenan sulfatase from Pseudoalteromonas fuliginea PS47 (Pseudoalteromonas fuliginea PS47); test: crystal structure; hanging drop vapor-diffusion at 18 °C; N-terminal His-Tag cleaved with thrombin before crystallization

T5 sequence (A0ABQ6RIJ3 entry or part of it C84S): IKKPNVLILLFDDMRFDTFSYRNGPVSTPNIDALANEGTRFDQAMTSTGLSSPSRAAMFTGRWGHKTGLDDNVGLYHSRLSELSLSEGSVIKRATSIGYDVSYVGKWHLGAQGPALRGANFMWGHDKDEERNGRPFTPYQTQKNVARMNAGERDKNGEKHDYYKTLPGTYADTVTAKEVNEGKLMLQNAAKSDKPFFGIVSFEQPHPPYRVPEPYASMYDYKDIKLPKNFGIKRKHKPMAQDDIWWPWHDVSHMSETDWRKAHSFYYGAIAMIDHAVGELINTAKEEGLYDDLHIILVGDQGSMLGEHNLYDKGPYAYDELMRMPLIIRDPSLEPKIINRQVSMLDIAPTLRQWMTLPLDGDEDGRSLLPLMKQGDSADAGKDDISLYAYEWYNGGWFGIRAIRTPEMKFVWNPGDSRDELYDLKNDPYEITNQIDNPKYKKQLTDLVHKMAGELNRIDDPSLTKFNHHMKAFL
T3 sequence (A0ABQ6RIL2 entry or part of it C77S): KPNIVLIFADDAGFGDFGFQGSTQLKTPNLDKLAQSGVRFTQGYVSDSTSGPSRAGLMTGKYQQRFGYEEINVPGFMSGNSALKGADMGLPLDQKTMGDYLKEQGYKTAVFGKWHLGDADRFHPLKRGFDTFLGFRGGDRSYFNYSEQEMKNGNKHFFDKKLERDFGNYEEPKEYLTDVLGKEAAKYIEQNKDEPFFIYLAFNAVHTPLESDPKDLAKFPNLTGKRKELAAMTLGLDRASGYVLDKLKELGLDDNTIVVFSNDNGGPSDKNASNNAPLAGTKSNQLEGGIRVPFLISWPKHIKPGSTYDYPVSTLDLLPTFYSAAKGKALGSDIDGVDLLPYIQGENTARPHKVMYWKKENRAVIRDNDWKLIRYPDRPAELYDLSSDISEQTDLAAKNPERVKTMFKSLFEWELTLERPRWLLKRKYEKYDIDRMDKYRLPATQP
T4 sequence (A0ABQ6RIU8 entry or part of it): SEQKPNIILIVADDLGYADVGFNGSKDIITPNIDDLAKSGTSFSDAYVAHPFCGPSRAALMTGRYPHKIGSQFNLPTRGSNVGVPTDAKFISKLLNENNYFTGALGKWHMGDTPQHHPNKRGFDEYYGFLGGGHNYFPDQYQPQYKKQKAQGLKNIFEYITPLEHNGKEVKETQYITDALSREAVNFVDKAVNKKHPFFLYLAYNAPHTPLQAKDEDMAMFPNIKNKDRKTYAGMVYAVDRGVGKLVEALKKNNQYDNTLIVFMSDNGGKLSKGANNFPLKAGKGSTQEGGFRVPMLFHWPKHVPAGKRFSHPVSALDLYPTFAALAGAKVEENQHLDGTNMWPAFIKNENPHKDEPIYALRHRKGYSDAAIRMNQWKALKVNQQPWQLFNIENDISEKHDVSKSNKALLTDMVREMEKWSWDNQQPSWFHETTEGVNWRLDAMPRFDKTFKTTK
T2 sequence (A0ABQ6RII1 entry or part of it): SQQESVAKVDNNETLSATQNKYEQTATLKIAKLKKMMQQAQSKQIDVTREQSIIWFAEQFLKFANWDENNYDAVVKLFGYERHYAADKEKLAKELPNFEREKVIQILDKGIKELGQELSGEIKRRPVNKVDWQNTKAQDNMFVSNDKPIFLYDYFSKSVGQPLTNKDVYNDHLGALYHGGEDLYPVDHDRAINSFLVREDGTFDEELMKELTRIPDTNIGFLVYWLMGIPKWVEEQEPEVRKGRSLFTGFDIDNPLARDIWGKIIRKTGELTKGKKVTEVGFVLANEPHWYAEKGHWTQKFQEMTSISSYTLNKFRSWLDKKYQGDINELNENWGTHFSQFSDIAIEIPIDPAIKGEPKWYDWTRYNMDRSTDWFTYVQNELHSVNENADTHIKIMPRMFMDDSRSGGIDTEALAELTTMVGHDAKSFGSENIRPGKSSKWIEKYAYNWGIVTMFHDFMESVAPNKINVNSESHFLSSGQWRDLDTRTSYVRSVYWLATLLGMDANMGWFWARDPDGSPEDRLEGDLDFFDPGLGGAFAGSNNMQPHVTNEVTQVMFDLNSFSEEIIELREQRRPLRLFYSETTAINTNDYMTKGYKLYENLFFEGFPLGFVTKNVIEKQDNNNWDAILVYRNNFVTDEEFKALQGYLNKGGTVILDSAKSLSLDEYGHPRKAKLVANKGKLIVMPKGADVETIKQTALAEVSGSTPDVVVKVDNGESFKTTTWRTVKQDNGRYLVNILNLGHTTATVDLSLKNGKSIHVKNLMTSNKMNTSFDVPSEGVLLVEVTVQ

Question: Which results are given for `O=S(=O)(O)O[C@@H]1[C@H](O[C@H]2O[C@@H]3CO[C@H]([C@H]2O)[C@H]3O[C@@H]2O[C@H](CO)[C@H](O)[C@H](O[C@H]3O[C@@H]4CO[C@@H]([C@H]4O)[C@H]3O)[C@H]2O)[C@@H](O)C(O)O[C@@H]1CO` (stereo partly drawn) [β/κ-NC4, β/κ-neocarratetraose]?
Answer: thin layer chromatography of products (BovGH167): has the same enzymatic activity as GH167 (Fig. 5a); thin layer chromatography of products (GH167): Using TLC we found activity on hybrid β/κ-neocarratetraose (β/κ-NC4)

Question: How did the “crystal structure of the complex” value (S1_19B) turn out when `O=S(=O)(O)O[C@@H]1[C@H](O[C@H]2O[C@@H]3CO[C@@H]([C@H]3O)[C@H]2OS(=O)(=O)O)[C@@H](O)[C@H](O[C@@H]2[C@@H]3OC[C@H]2O[C@H](O[C@H]2[C@@H](OS(=O)(=O)O)[C@@H](CO)OC(O)[C@@H]2O)[C@@H]3OS(=O)(=O)O)O[C@@H]1CO` (some centres unmarked) [ι-NC4, ι-neocarratetraose] was run?
Answer: Its value is “the structure of this enzyme in complex with ι-NC4 revealed the ability of the enzyme to bind”.

Question: What about the “product analysis, details in supplement” value (S1_19A) of the same compound?
Answer: The value was “can remove the 4-sulfate from the G4S residue that is adjacent to the non-reducing end”.

Question: And the “crystal structure of the complex” value (S1_NC)?
Answer: The value was “structural analysis of the S1_NC C84S mutant in complex with ι-NC4”.

Question: “DauA, 3,6-anhydro-D-galactose dehydrogenase from Pseudoalteromonas fuliginea PS47 (enzyme)” was tested. Which stoichiometry N [1] did it give?
Answer: Its stoichiometry N is 2.

Question: “S1_19B, exo-G4S κ-carrageenan sulfatase from Pseudoalteromonas fuliginea PS47 (enzyme)” was tested. Which stoichiometry N [2] did it give?
Answer: Its stoichiometry N is 2.

Question: And the stoichiometry N [3]?
Answer: Its stoichiometry N is 2.
